This is an account of results in patent US4912036A, “Rapid differentiation of bacteria using cyclic polypeptide antibiotics” (Eastman Kodak Company, priority 1986, dated 1990).

Some results are limits rather than exact numbers.

Assay [1] concerns E. coli. Nature of the assay: RIND VII reduction solution assay, ΔOD 635 nm. The note with it: E. coli 7 × 10^7 /ml, antibiotic 10^-4 molar. Type of assay: cell-based, Escherichia coli. The method, then:
(§1) Bacterial suspensions were prepared by growing the cells in BHT broth to stationary phase overnight at 37° C. P. auruginosa was grown with agitation. About 40 ml of each overnight culture was centrifuged, decanted and washed once with 0.05 molar potassium phosphate buffer or 0.05 molar N-2-hydroxy-ethylpiperazine-N'-2-ethanesulfonic acid (HEPES) buffer, pH 7.8, and resuspended in buffer.
TERGITOL 7 anionic surfactant was used to differentiate viable bacteria according to the prior art method. Various concentrations of TERGITOL 7 surfactant were mixed with a 10% glucose solution (50 μl), 3-(4,5-dimethyl-2-thiazolyl)-2,5-diphenyl-2N-tetrazolium bromide (MTT) (25 μl at 5 mg/ml methanol) or a RIND VII dispersion (1.5 ml) and phenazine methosulfate ETA (25 μl at 3 mg/ml methanol). The volume of each test solution was brought to 3 ml with potassium phosphate buffer. A cell suspension (100 μl at about 10^8 cells/ml) was then added. The solutions were incubated at 37° C. for 15 and 30 minutes in the presence of either E. coli, a gram(-) bacterium, or S. aureus, a gram(+) bacterium. The amount of dye formed was then determined visually, and graded as follows: "O" indicates no dye formation, +/- indicates faint dye formation, 1+ indicates light dye formation, 2+ indicates moderate dye formation, 3+ indicates strong dye formation, and 4+ indicates very strong dye formation. […]

The subject of assay [2] is E. cloacae. The experiment in a line: RIND XXIX reduction solution assay, Δ fluorescence. Type of assay: cell-based, Enterobacter cloacae. As to conditions: E. cloacae (gram -) about 5×10^7 cells/ml, gramicidin S 0.1 mg/ml, 37° C. The method, then:
as §1
Dispersions containing RIND compounds were prepared by dissolving the RIND compound in N,N-dimethylformamide (DMF) at 16 mg compound per ml of solvent. An aliquot (250 μl) of the resulting solution was added to 500 μl of TRITON X-100 surfactant. This mixture was then added dropwise with stirring to 25 ml of 0.05 molar HEPES buffer. A dispersion of RIND XXIX was prepared similarly except that DMF was acidified with 0.1% sulfuric acid. Compositions containing water-compatible RIND compounds were prepared as described above except the surfactant was omitted.
Each test solution contained the following: dispersion of RIND XXIX (25 μl) prepared as described above, glucose (400 μl of 10% aqueous solution), tryptose (400 μl of 10% aqueous solution), trimethyl-1,4-benzoquinone ETA (500 μl of 1.5 mg/ml methanol). Aliquots (200 μl) of the mixture were mixed with solutions of the antibiotics (50 μl). The cell suspensions (50 μl) were then added. The final concentration of gramcidin S and tyrocidin were 0.1 mg/ml and 3.3 mg/ml, respectively. The final cell concentration was about 5×10^7 cells/ml. Cell control solutions contained all reagents except antibiotics. Background controls consisted of both buffer and solution controls. […]
The solutions were incubated at 37° C. for 30 minutes, and the change in fluorescence emission (Δ fluorescence) was determined as the difference between the readings taken when the solutions were first mixed and then after 30 minutes incubation. Measurements were made in a commercially available MICROFLUOR Reader (available from Dynatech Laboratories, Alexandria, Virginia, U.S.A.), modified with an excitation filter at 540 nm, an emission filter at 620 nm and a Xenon lamp. […]

Regarding gramicidin S, the “Corrected ΔOD (15 Minutes)” value in assay [1] is over 2.0. Further, in assay [2], the “Δ Fluorescence (30 Minutes)” value was over 4000.
